Assay results as given in patent US20040253251A1 (priority 2003, published 2004).
Where two headings read alike, the source gives them in different places.

Legend:
[1] = test system: ovarian tumor cells injected subcutaneously; settings: 31st day from tumor inoculation; 30 consecutive days; AY/NY 0.3 ml oral once per day, CTX 30 mg/kg/day s.c.
Protocol: (§1) The biological composition comprising 10^8 cells per ml of activated and conditioned yeast cells of the strain Saccharomyces cerevisiae Hansen strain AS2.502 was prepared by the methods described in Section 5.1 and subsections therein
The mice injected with tumor cells were kept for 5 days and then were divided into 4 experimental groups of ten mice per group and one control group. The four experimental groups were triplicated (i.e., using a total of 120 mice in the experimental groups).
The mice received the biological compositions, untreated yeast cells, CTX or saline on the same day as the tumor cells were transplanted. The mice in group CK2 also started receiving saline on the same day as the other four groups. The biological compositions, untreated yeast cells and saline were administered orally by a feeding tube and the CTX by subcutaneous injection for 30 consecutive days. […] The weight of the mice and the weight of the tumor were determined by standard techniques.

[2] = test system: ovarian tumor cells injected subcutaneously; settings: for Number of live animals remaining in the groups after 30 days of treatment: 30 mice per group
Protocol: The survival time of mice after tumor injection and treatment was studied.
as §1
The animals were prepared in a similar manner as described in Section 8.1.
The mice injected with tumor cells were kept for 5 days and then were divided into 4 experimental groups of ten mice per group and one control group. The four experimental groups were triplicated (i.e., using a total of 120 mice in the experimental groups). In group 2AY, the mice received 0.3 ml of the biological composition once per day. In group 2NY, the mice received 0.3 ml of the untreated yeast cells once per day. In group 2CTX, the mice were injected subcutaneously with […] of cyclophosphamide (CTX) per kg body weight per day. In group 2CK1, the mice received 0.3 ml of physiological saline once per day.
The mice received the biological compositions, untreated yeast cells, CTX or saline on the same day as the tumor cells were transplanted. Mice in group 2CK2 also started receiving saline on the same day as the other four groups. The biological compositions, untreated yeast cells and saline were administered orally by a feeding tube and the CTX by subcutaneous injection for 30 consecutive days. The mice were observed over 6 months from the day of tumor inoculation and survival was recorded. The weight of the mice and the weight of the tumor were determined by standard techniques.

[3] = test system: human ovarian cancer cells transplanted into mice; test: Tumor growth in mouse model of human ovarian cancer (orthotopic transplant), Example 6; assay type: in vivo; settings: 31st day from tumor inoculation; 30 consecutive days; AY/NY 0.3 ml oral once per day, TSPA 1.5 mg/kg/day i.v.
Source text: Numerous animal studies have reported the use of orthotopic transplant technique in female mouse models to study the treating of ovarian cancer. See, for example, Animals for Experiments and Experimental Techniques, Chinese Medical Publisher, 1997. The use of orthotopic transplant technique has been highly successful in the development of mouse models of human ovarian cancer.
The human ovarian cancer sample is carefully selected before, during, and after surgery in order to ensure transplant occurred at the equivalent position in the mouse. The ovarian cancer sample is obtained from patients who have not received any radiation, chemotherapy, or immune enhancement treatment.
The mouse were starved for 24 hours before the surgery. The animals were generally anaesthetized. The barbiturates was first diluted in saline and then injected at 0.3 to 0.4 ml per animal, or 30 mg per kg body weight, into the abdomen of the mice. Under sterile conditions, a 1 cm long opening in the body cavity was cut along the right rib of the mice for engraftment of the tumor. About 10^6 units of tumor cells (about 2 mg tumor pieces per ml culture medium) were transplanted. Afterwards, the opening was sutured and the mice were put back into the cage. The animals were allowed to grow for three to five weeks or when the tumor grows to about 1 to 2 cm^3 in size. […]

[4] = test system: human ovarian cancer cells transplanted into mice; test: Survival over 6 months in mouse model of human ovarian cancer, Example 7; assay type: in vivo; settings: for Number of live animals remaining in the groups after 30 days of treatment: 30 mice per group
Protocol: In group 2TSPA, the mice were injected intravenously with 1.5 mg of thiotepa (TSPA) per kg body weight per day.

[5] = 2 months after cessation of treatment
[6] = 3 months after cessation of treatment
[7] = 4 months after cessation of treatment
[8] = 5 months after cessation of treatment
[9] = 6 months after cessation of treatment
[10] = mice that survived the 6 months observation

For O=P1(N(CCCl)CCCl)NCCCO1 (centres unmarked) [CTX, cyclophosphamide], the “mean weight of mice and standard deviation” value [1] was 20 ± 2.3 g, the “mean weight of tumor nodules and standard deviation” value [1] was 3.3 ± 1.4 g and the “Number of live animals remaining in the groups after 30 days of treatment” value (shortened to “Number of live animals remaining”) ([2]; 1 month after cessation of treatment, 2AY/2NY 0.3 ml oral per day, 2CTX 305 mg/kg/day s.c. (30 mg)) was 30. For the same molecule, the “Number of live animals remaining” value [2, 5] was 30, the “Number of live animals remaining” value [2, 6] was 23 and the “Number of live animals remaining” value [2, 7] was 14. The “Number of live animals remaining” value [2, 8] was 9, the “Number of live animals remaining” value [2, 9] was 0 and the “survival outcome during the experiment” value ([2]; in words, 6 months observation, 2NY 0.3 ml per day, 2CTX 30 mg/kg per day) was “all died”. The “mean weight of mice and standard deviation” value [2, 10] was “all animals dead” and the “mean weight of tumor nodules and standard deviation” value [2, 10] was “all animals dead”.

S=P(N1CC1)(N1CC1)N1CC1 [TSPA, thiotepa] was tested, and the “mean weight of mice and standard deviation” value [3] was 21 ± 2.1 g, the “mean weight of tumor nodules and standard deviation” value [3] was 3.1 ± 0.8 mg and the “Number of live animals remaining” value ([4]; 0 month after cessation of treatment, 2AY/2NY 0.3 ml oral per day, 2TSPA 1.5 mg/kg/day i.v.) was 30. For the same molecule, the “Number of live animals remaining” value ([4]; 1 month after cessation of treatment) was 24, the “Number of live animals remaining” value [4, 5] was 7 and the “Number of live animals remaining” value [4, 6] was 2. The “Number of live animals remaining” value [4, 7] was 0, the “Number of live animals remaining” value [4, 8] was 0 and the “Number of live animals remaining” value [4, 9] was 0. For the same molecule, the “survival outcome during the experiment” value ([4]; in words, 6 months observation, 2NY 0.3 ml per day, 2TSPA 1.5 of thiotepa per kg per day) was “all died”, the “mean weight of mice and standard deviation” value [4, 10] was “all animals dead” and the “mean weight of tumor nodules and standard deviation” value [4, 10] was “all animals dead”.
